These results are taken from patent US20190210969A1, “INTRAESOPHAGEAL ADMINISTRATION OF TARGETED NITROXIDE AGENTS FOR PROTECTION AGAINST IONIZING IRRADIATION-INDUCED ESOPHAGITIS” (University of Pittsburgh - Of the Commonwealth System of …, priority 2010, published 2019).

The test system of data set [1] is KM101 human marrow stromal cells. Put plainly: Irradiation survival of KM101 marrow stromal cells (colony assay). Format: cell-based. The note with it: for n (shoulder): 0 to 6 Gy. As for the experimental part:
FIG. 7 is a graph showing that JP4-039 is an effective mitigator of irradiation damage to KM101 human marrow stromal cells. KM101 cells were incubated in media alone or in JP4-039 ([…]) for one hour before irradiation or 24 hours after irradiation. The cells were irradiated to doses ranging from 0 to 6 Gy and plated in 4 well plates. Seven days later the cells were stained with crystal violet and colonies of greater than 50 cells counted. Cells incubated in JP4-039 either before or after irradiation were more radioresistant as shown by an increased shoulder of n=2.3±0.2 or 2.2±0.2, respectively compared to n of 1.1±0.1 for the KM101 cells (p=0.0309 or 0.0386, respectively).

A short description of data set [2]: Clearance of intravenously injected JP4-039 measured by EPR. The format is in vivo, mouse. More on the design: dose or concentration left out as unconfirmed. An excerpt: FIGS. 13A-13B. Pharmacokinetics of clearance of JP4-039 intravenously injected into C57BL/6JHNsd mice in (FIG. 13A) plasma and (FIG. 13B) lung. […] Serum samples were collected and assayed. Each symbol represents an individual mouse. The methods for assay of nitroxide by EPR have been published previously (Borisenko G G, et al. J Am Chem Soc 4(30): 9221-9232, 2004 and Jiang J, et al. A mitochondria-targeted triphenylphosphonium-conjugated nitroxide functions as a radioprotector/mitigator. Radiat Res 172(6): 706-717, 2009).
Measurement of JP4-039 nitroxide in serum and in tissues by electron paramagnetic resonance. Electron paramagnetic resonance (EPR) spectra of nitroxide radicals in cells or in mitochondrial fractions were recorded after mixing with acetonitrile (1:1 v/v) after 5 min incubation with 2 mM K3Fe(CN)6 using a JEOL-RE1XEPR spectrometer (JEOL, USA, Inc., Peabody, Mass., USA) under the following conditions: 3350 G center field, 25 G scan range, 0.79 G field modulation, 20 mW microwave power, 0.1 s time constant, 4 min scan time. Under these experimental conditions, nitroxides were not detectably oxidized by […] to EPR-silent oxoamminium cations. Mitochondria-enriched fractions were obtained by differential centrifugation. […] Partitioning efficiency was calculated as a percentage of the initial signal. […] After that, samples were centrifuged at 10,000 g for 5 min, and the pellets washed twice with the incubation buffer and analyzed by EPR as described previously (Borisenko G G, et al. Nitroxides scavenge myeloperoxidase-catayzed thiyl radicals in model systems and in cells. J Am Chem Soc 4(30): 9221-9232, 2004 and Jiang J, et al. A mitochondria-targeted triphenylphosphonium-conjugated nitroxide functions as a radioprotector/mitigator. Radiat Res 172(6): 706-717, 200938-39).
Intravenous JP4-039 systemic pharmacokinetics and intraesophageal formulation mediated delivery to esophagus. […] JP4-039 was cleared from plasma by 10 min, but was detected in lung (and intestine) for over 30 minutes.

The subject of data set [3] is mice exposed to total body irradiation. The experiment in a line: Survival of mice after total body irradiation. The note with it: for protection from death: vs TEMPO or F14 alone, preliminary data. The format is in vivo, mouse. As for the experimental part: In FIG. 4A, mice received intraperitoneal injection of 10 mg per kilogram of each of the chemicals indicated, then 24 hours later received 9.75 Gy total body irradiation according to published methods. Mice were followed for survival according to IACUC regulations. […] (P=0.0008). In FIG. 4B, mice received intraperitoneal injection of JP4-039 either 10 minutes before (square symbols) or 4 hours after (triangle symbols) irradiation with 9.75 Gy.
Groups of 15 mice received intraperitoneal injection of 10 mg. per kilogram of each indicated GS-nitroxide compound or carrier (Cremphora plus alcohol at 1 to 1 ratio, then diluted 1 to 10 in distilled water). Mice received 10 mg per kilogram intra-peritoneal injection 24 hours prior to total body irradiation. Control mice received radiation alone. […] (P=0.0005) FIG. 6 is a graph showing that GS-nitroxide JP4-039 is an effective hematopoietic cell radiation mitigator when delivered 24 hr after irradiation. Irradiation survival curves were performed on cells from the 32D cl 3 mouse hematopoietic progenitor cell line, incubated in 10 μM JP4-039 for 1 hour before irradiation, or plated in methylcellulose containing 10 μM […] after irradiation. Cells were irradiated from 0 to 8 Gy, plated in 0.8% methylcellulose containing media, and incubated for 7 days at 37° C. Colonies of greater than 50 cells were counted and data analyzed by linear quadratic and single-hit, multi-target models.
The above methods are based on preliminary data showing that JP4-039 administered via i.p. injection at 10 mg/kg 10 minutes before either […] [FIG. 21A] or 9.15 Gy [FIG. 21B] total-body irradiation protected C57BL/6NHsd female mice from esophagitis-induced death compared to those that received either TEMPO or F14 alone (p=0.0301 and p=0.010, respectively).

Some results are limits rather than exact numbers.

Consider `CC(C)C[C@@H](/C=C/CC(=O)NC1CC(C)(C)N([O])C(C)(C)C1)NC(=O)OC(C)(C)C` [JP4-039, TEMPO-4-yl-(S,E)-5-(tert-butoxycarbonylamino)-7-methyloct-3-enamide], for which the “n (shoulder)” value was 2.2±0.2 in data set [1] (24 hours after irradiation, KM101 alone 1.1±0.1, p=0.0386) and 2.3±0.2 in data set [1] (for one hour before irradiation, KM101 alone 1.1±0.1, p=0.0309). In addition, the Do result in data set [1] (before or after irradiation vs media alone) is “no significant change”. The “time detected in intestine” value in data set [2] is on record as “over 30 minutes”. The “time detected in lung” value in data set [2] is reported as “over 30 minutes”. Further, the “time by which cleared from plasma” value in data set [2] (intravenous in 100 μl) was at most 10 min. Moreover, the protection from death entry in data set [3] (10 mg/kg i.p. 10 minutes before 9/5 Gy total-body irradiation, p=0.0301) is on record as “protected”; in data set [3] (10 mg/kg i.p. 10 minutes before 9.15 Gy total-body irradiation, p=0.010), “protected”. The survival of mice result in data set [3] (10 mg/kg i.p. 24 hours before 9.75 Gy total body irradiation, vs irradiated control, P=0.0008) is on record as “significant increase in survival”; in data set [3] (10 mg/kg i.p. 24 hours prior to 9.5 Gy total body irradiation, P=0.0005), “increases survival”.
